Results taken from US20240390340A1 (INCYTE CORPORATION, priority 2023, published 2024).

Tests used:
KRAS G12D = KRAS G12D (Homo sapiens, UniProt P01116, G12D); assay: GDP-GTP exchange assay (bodipy-GDP/GppNHp, SOS1), KRAS G12D; assay type: biochemical; settings: bodipy-loaded KRAS G12D 2.5 nM, 4 h pre-incubation; value for the most potent isomer quoted for certain compounds; read-out: G12D (KRAS G12D exchange assay IC50)
Procedure: (§1) The inhibitor potency of the exemplified compounds was determined in a fluorescence based guanine nucleotide exchange assay, which measures the exchange of bodipy-GDP (fluorescently labeled GOP) for GppNHp (Non-hydrolyzable GTP analog) to generate the active state of KRAS in the presence of SOS1 (guanine nucleotide exchange factor). Inhibitors were serially diluted in DMSO and a volume of 0.1 μL was transferred to the wells of a black low volume 384-well plate. 5 μL/well volume of bodipy-loaded KRAS G12D diluted to 2.5 nM in assay buffer (25 mM Hepes pH 7.5, 50 mM NaCl, 10 mM MgCl2 and 0.01% Brij-35) was added to the plate and pre-incubated with inhibitor for 4 h at r.t. Appropriate controls (enzyme with no inhibitor or with a G12D inhibitor) were included on the plate. The exchange was initiated by the addition of a 5 μL/well volume containing 1 mM GppNHp and 300 nM SOS1 in assay buffer. The 10 μL/well reaction concentration of the bodipy-loaded KRAS G12D, GppNHp, and SOS1 were 2.5 nM, 500 μM, and 150 nM, respectively. The reaction plates were incubated at r.t. for 2 h, a time estimated for complete GDP-GTP exchange in the absence of inhibitor. For the KRAS G12V mutant, similar guanine nucleotide exchange assays were used with 2.5 nM as final concentration for the bodipy loaded KRAS proteins and 3 h incubation after adding GppNHp-SOS1 mixture. A cyclic peptide described to selectively bind G12D mutant (Sakamoto et al., BBRC 484.3 (2017), 605-611) or internal compounds with confirmed binding were used as positive controls in the assay plates. Fluorescence intensities were measured on a PheraStar plate reader instrument (BMG Labtech) with excitation at 485 nm and emission at 520 nm.
(§2) Either GraphPad prism or Genedata Screener SmartFit was used to analyze the data. The IC50 values were derived by fitting the data to a four parameter logistic equation producing a sigmoidal dose-response curve with a variable Hill coefficient.
(§3) The symbol “†” indicates IC50≤100 nM, “††” indicates IC50>100 nM but ≤1 μM; and “†††” indicates IC50 is >1 μM but ≤5 μM, “††††” indicates IC50 is >5 μM but ≤10 μM. “NA” indicates IC50 not available.

KRAS G12V = KRAS G12V (Homo sapiens, UniProt P01116, G12V); assay: GDP-GTP exchange assay (bodipy-GDP/GppNHp, SOS1), KRAS G12V; assay type: biochemical; settings: KRAS G12V mutant; value for the most potent isomer quoted for certain compounds; read-out: G12V (KRAS G12V exchange assay IC50)
Procedure: as §1, §2, §3

Chain of KRAS G12D (P01116 1-188 isoform P01116-2 G12D): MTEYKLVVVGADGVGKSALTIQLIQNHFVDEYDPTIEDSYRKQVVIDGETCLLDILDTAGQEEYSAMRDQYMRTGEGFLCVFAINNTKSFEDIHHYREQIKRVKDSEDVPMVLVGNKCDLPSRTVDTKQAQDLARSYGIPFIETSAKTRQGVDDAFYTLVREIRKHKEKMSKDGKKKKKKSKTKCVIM
Chain of KRAS G12V (P01116 1-188 isoform P01116-2 G12V): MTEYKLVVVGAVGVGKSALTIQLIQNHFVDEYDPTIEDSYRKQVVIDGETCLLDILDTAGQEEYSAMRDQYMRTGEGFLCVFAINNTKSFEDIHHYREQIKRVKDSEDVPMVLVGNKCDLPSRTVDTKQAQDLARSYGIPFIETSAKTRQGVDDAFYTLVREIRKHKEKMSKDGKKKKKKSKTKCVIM

| IC50 (KRAS G12D) [nM] | IC50 (KRAS G12V) [nM] | Compound |
| --- | --- | --- |
| ≤ 100 | ≤ 100 | Cc1nc2c(F)c(-c3cccc(Cl)c3Cl)c(CCC#N)cc2c2c1cc([C@H]1C[C@H](OCc3ccncc3)CN1C(=O)C1CC1)n2[C@H]1[C@H]2CN[C@@H]1C2 [Example 96] |
| ≤ 100 | ≤ 100 | Cc1nc2c(F)c(-c3cccc(Cl)c3Cl)c(CCC#N)cc2c2c1cc([C@H]1C[C@H](Oc3cncc4c3OCCC4)CN1C(=O)C1CC1)n2[C@H]1[C@H]2CN[C@@H]1C2 [Example 289] |
| ≤ 100 | ≤ 100 | Cc1nc2c(F)c(-c3cccc(Cl)c3Cl)c(CCC#N)cc2c2c1cc([C@H]1C[C@H](n3cc(C(F)F)nn3)CN1C(=O)C1CC1)n2[C@H]1[C@H]2CN[C@@H]1C2 [Example 380] |
| ≤ 100 | ≤ 100 | Cc1nc2c(F)c(-c3cccc(Cl)c3Cl)c(CCC#N)cc2c2c1cc([C@H]1C[C@H](Oc3ccc(=O)n(C)c3)CN1C(=O)C1CC1)n2[C@H]1[C@H]2CN[C@@H]1C2 [Example 420] |
| ≤ 100 | ≤ 100 | N#CCCc1cc2c(nc(C3CCNC3)c3cc([C@H]4C[C@H](OCc5c(F)cccc5F)CN4C(=O)C4CC4)n([C@H]4[C@H]5CN[C@@H]4C5)c32)c(F)c1-c1cccc(Cl)c1Cl (stereo partly shown) [Example 239] |
| ≤ 100 | ≤ 100 | Cc1cc(C)n([C@H]2C[C@H](c3cc4c(C)nc5c(F)c(-c6cccc(Cl)c6Cl)c(CCC#N)cc5c4n3[C@H]3[C@H]4CN[C@@H]3C4)N(C(=O)C3CC3)C2)n1 [Example 355] |
| ≤ 100 | ≤ 100 | COc1ccnc(O[C@H]2C[C@H](c3cc4c(C)nc5c(F)c(-c6cccc(Cl)c6Cl)c(CCC#N)cc5c4n3[C@H]3[C@H]4CN[C@@H]3C4)N(C(=O)C3CC3)C2)c1 [Example 328] |
| ≤ 100 | ≤ 100 | Cc1nc2c(F)c(-c3cccc(Cl)c3Cl)c(CCC#N)cc2c2c1cc([C@H]1C[C@H](OCC3(C)CC(F)(F)C3)CN1C(=O)C1CC1)n2[C@H]1[C@H]2CN[C@@H]1C2 [Example 412] |
| ≤ 100 | ≤ 100 | Cc1c(O[C@H]2C[C@H](c3cc4c(C)nc5c(F)c(-c6cccc(Cl)c6Cl)c(CCC#N)cc5c4n3[C@H]3[C@H]4CN[C@@H]3C4)N(C(=O)C3CC3)C2)ccnc1Cl [Example 295] |
| ≤ 100 | ≤ 100 | CCOc1ncccc1O[C@H]1C[C@H](c2cc3c(C)nc4c(F)c(-c5cccc(Cl)c5Cl)c(CCC#N)cc4c3n2[C@H]2[C@H]3CN[C@@H]2C3)N(C(=O)C2CC2)C1 [Example 443] |
| ≤ 100 | 100 to 1000 | Cc1nc2c(F)c(-c3cccc(Cl)c3Cl)c(CCC#N)cc2c2c1cc([C@H]1C[C@H](OC3CCc4ccccc43)CN1C(=O)C1CC1)n2[C@H]1[C@H]2CN[C@@H]1C2 (stereo partly shown) [Example 337] |
| ≤ 100 | ≤ 100 | Cc1nc2c(F)c(-c3cccc(Cl)c3Cl)c(CCC#N)cc2c2c1cc([C@H]1C[C@H](Oc3cnn(C(F)F)c3)[C@@H](C)N1C(=O)C1CC1)n2[C@H]1[C@H]2CN[C@@H]1C2 [Example 214] |
| ≤ 100 | ≤ 100 | Cc1nc2c(F)c(-c3cccc(Cl)c3Cl)c(CCC#N)cc2c2c1cc([C@H]1C[C@H](Oc3cccc(C4CC4)c3)CN1C(=O)C1CC1)n2[C@H]1[C@H]2CN[C@@H]1C2 [Example 169] |
| ≤ 100 | ≤ 100 | CNC(=O)c1ccc(-c2nc3c(F)c(-c4cccc(Cl)c4Cl)c(CCC#N)cc3c3c2cc([C@H]2C[C@H](OCc4c(F)cccc4F)CN2C(=O)C2CC2)n3[C@H]2[C@H]3CN[C@@H]2C3)cn1 [Example 220] |
| ≤ 100 | ≤ 100 | Cc1nc2c(F)c(-c3cccc(Cl)c3Cl)c(CCC#N)cc2c2c1cc([C@H]1C[C@H](n3cc(C(F)(F)F)nn3)CN1C(=O)C1CC1)n2[C@H]1[C@H]2CN[C@@H]1C2 [Example 414] |
| ≤ 100 | ≤ 100 | CC(C)(O)c1ccc(-c2nc3c(F)c(-c4cccc(Cl)c4Cl)c(CCC#N)cc3c3c2cc([C@H]2C[C@H](OCc4c(F)cccc4F)CN2C(=O)C2CC2)n3[C@H]2[C@H]3CN[C@@H]2C3)cn1 [Example 158] |
| ≤ 100 | ≤ 100 | COc1ncc(F)cc1O[C@H]1C[C@H](c2cc3c(C)nc4c(F)c(-c5cccc(Cl)c5Cl)c(CCC#N)cc4c3n2[C@H]2[C@H]3CN[C@@H]2C3)N(C(=O)C2CC2)C1 [Example 447] |

| IC50 (KRAS G12D) [nM] | IC50 (KRAS G12V) [nM] | Compound |
| --- | --- | --- |
| ≤ 100 | ≤ 100 | Cc1nc2c(F)c(-c3cccc(Cl)c3Cl)c(CCC#N)cc2c2c1cc([C@H]1C[C@H](Oc3cccc(Cl)c3)CN1C(=O)C1CC1)n2[C@H]1[C@H]2CN[C@@H]1C2 [Example 161] |
| ≤ 100 | ≤ 100 | Cc1nc2c(F)c(-c3cccc(Cl)c3Cl)c(CCC#N)cc2c2c1cc([C@H]1C[C@H](OC3CC3)CN1C(=O)C1CC1)n2[C@H]1[C@H]2CN[C@@H]1C2 [Example 230] |
| ≤ 100 | ≤ 100 | Cc1nc2c(F)c(-c3cccc(Cl)c3Cl)c(CCC#N)cc2c2c1cc([C@H]1C[C@H](OCc3ccnc(C(F)(F)F)c3)CN1C(=O)C1CC1)n2[C@H]1[C@H]2CN[C@@H]1C2 [Example 259] |
| ≤ 100 | ≤ 100 | Cc1nc2c(F)c(-c3cccc(Cl)c3Cl)c(CCC#N)cc2c2c1cc([C@H]1C[C@H](Oc3cc(C(F)(F)F)[nH]n3)CN1C(=O)C1CC1)n2[C@H]1[C@H]2CN[C@@H]1C2 [Example 409] |
| ≤ 100 | ≤ 100 | Cc1nc2c(F)c(-c3cccc(Cl)c3Cl)c(CCC#N)cc2c2c1cc([C@H]1C[C@H](n3cnnn3)CN1C(=O)C1CC1)n2[C@H]1[C@H]2CN[C@@H]1C2 [Example 395] |
| ≤ 100 | ≤ 100 | COCCn1cc(O[C@H]2C[C@H](c3cc4c(C)nc5c(F)c(-c6cccc(Cl)c6Cl)c(CCC#N)cc5c4n3[C@H]3[C@H]4CN[C@@H]3C4)N(C(=O)C3CC3)C2)cn1 [Example 441] |
| ≤ 100 | ≤ 100 | Cc1nc2c(F)c(-c3cccc(Cl)c3Cl)c(CCC#N)cc2c2c1cc([C@H]1C[C@H](n3nnnc3C)CN1C(=O)C1CC1)n2[C@H]1[C@H]2CN[C@@H]1C2 [Example 397] |
| ≤ 100 | ≤ 100 | Cc1nc2c(F)c(-c3cccc(Cl)c3Cl)c(CCC#N)cc2c2c1cc([C@H]1C[C@H](OCc3cncn3C)CN1C(=O)C1CC1)n2[C@H]1[C@H]2CN[C@@H]1C2 [Example 108] |
| ≤ 100 | ≤ 100 | Cc1cccnc1CO[C@H]1C[C@H](c2cc3c(C)nc4c(F)c(-c5cccc(Cl)c5Cl)c(CCC#N)cc4c3n2[C@H]2[C@H]3CN[C@@H]2C3)N(C(=O)C2CC2)C1 [Example 150] |
| ≤ 100 | ≤ 100 | Cc1nc2c(F)c(-c3cccc(Cl)c3Cl)c(CCC#N)cc2c2c1cc([C@H]1C[C@H](n3cc(Cn4ccccc4=O)nn3)CN1C(=O)C1CC1)n2[C@H]1[C@H]2CN[C@@H]1C2 [Example 324] |
| ≤ 100 | ≤ 100 | COc1ccc(CO[C@H]2C[C@H](c3cc4c(C)nc5c(F)c(-c6cccc(Cl)c6Cl)c(CCC#N)cc5c4n3[C@H]3[C@H]4CN[C@@H]3C4)N(C(=O)C3CC3)C2)c(C#N)c1 [Example 252] |
| ≤ 100 | ≤ 100 | Cc1nc2c(F)c(-c3cccc(Cl)c3Cl)c(CCC#N)cc2c2c1cc([C@H]1C[C@H](Oc3cc(C(F)(F)F)nn3C)CN1C(=O)C1CC1)n2[C@H]1[C@H]2CN[C@@H]1C2 [Example 375] |
| ≤ 100 | ≤ 100 | Cc1cn([C@H]2C[C@H](c3cc4c(C)nc5c(F)c(-c6cccc(Cl)c6Cl)c(CCC#N)cc5c4n3[C@H]3[C@H]4CN[C@@H]3C4)N(C(=O)C3CC3)C2)cn1 [Example 282] |
| ≤ 100 | ≤ 100 | Cc1nc2c(F)c(-c3cccc(Cl)c3Cl)c(CCC#N)cc2c2c1cc([C@H]1C[C@H](Oc3cccnn3)CN1C(=O)C1CC1)n2[C@H]1[C@H]2CN[C@@H]1C2 [Example 138] |
| ≤ 100 | ≤ 100 | CN1CC=C(c2nc3c(F)c(-c4cccc(Cl)c4Cl)c(CCC#N)cc3c3c2cc([C@H]2C[C@H](OCc4c(F)cccc4F)CN2C(=O)C2CC2)n3[C@H]2[C@H]3CN[C@@H]2C3)CC1 [Example 219] |
| ≤ 100 | ≤ 100 | Cc1nc2c(F)c(-c3cccc(Cl)c3Cl)c(CCC#N)cc2c2c1cc([C@H]1C[C@H](OC(C)c3ncco3)CN1C(=O)C1CC1)n2[C@H]1[C@H]2CN[C@@H]1C2 (stereo partly shown) [Example 228] |
| ≤ 100 |  | Cc1nc2c(F)c(-c3cccc(Cl)c3Cl)c(CCC#N)cc2c2c1cc([C@H]1C[C@H](OC(=O)c3ccccc3)CN1C(=O)C1CC1)n2[C@H]1[C@H]2CN[C@@H]1C2 [Example 270] |
